Key:
[1] = biological target: NaV1.7 (Homo sapiens (Human), UniProt Q15858); test: Automated electrophysiology, IonWorks Barracuda population patch clamp, NaV1.7 current (inactivated-state protocol); type: cell-based; details: HEK 293 cells expressing NaV1.7; 600 sec compound incubation; read-out: NaV1.7 Barra IC50
Method: (§1) Automated Electrophysiology: Ion Works Barracuda population patch clamp (PPC). PPC measurements were performed using an IonWorks Barracuda instrument (Molecular Devices Corporation, Union City, Calif.) using either PatchPlate™ PPC substrates (Molecular Devices Corporation) with 64 apertures per well. The ability to average currents from 64 recordings from each well greatly improves data consistency and recording success rates in the measurement of NaV1.7 mediated ionic currents. Calculated leak current was digitally subtracted from the total cell NaV1.7 current for each sample point acquired.
(§2) NaV1.7 currents were elicited by a voltage clamp protocol designed to bias the NaV1.7 channels to their inactivated state as follows. From holding potential of −60 mV cells were briefly hyperpolarized to −100 mV for 1.25 sec, then stepped to −20 mV for 20 sec to inactivate the channels. This was followed by a relatively brief hyperpolarization to −100 mv for 300 ms, then a 20 msec test pulse to −20 mV to elicit the NaV1.7 current used to measure the pharmacology of all test compounds. Compounds were incubated for 600 sec between the pre- and post-compound reads. The external recording solution used was (in mM) 137 NaCl, 4 KCl, 1 MgCl2, 1.8 CaCl2, 10 Hepes, 10 glucose, pH to 7.4 with NaOH, and the internal solution used was (in mM) 100 K-gluconate, 40 KCl, 3.2 zMgCl2, 5 EGTA, 10 HEPES pH to 7.2 with KOH. The same solutions were used to record NaV1.5 currents, with the following voltage clamp protocol. NaV1.5 currents were elicited by a voltage clamp protocol designed to bias the NaV1.5 channels to their inactivated state as follows. From holding potential of −40 mV cells were briefly hyperpolarized to −100 mV for 300 ms, then stepped to −10 mV for 20 sec to inactivate the channels. This was followed by a relatively brief hyperpolarization to −100 mv for 30 ms, then a 20 msec test pulse to −10 mV to elicit the NaV1.5 current used to measure the pharmacology of all test compounds.
(§3) HEK 293 cells expressing NaV1.7 and NaV1.5 channels, were used (Essen Biosciences, Ann Arbor, Mich.). Cells were cultured in T-175 flasks and passaged every 2 to 3 days at 1:3 to 1:6 seeding density dilutions. Cells were grown to 70% to 90% confluence in a flask and removed from the incubator (37° C., 5% CO2) 1 to 3 days after plating. Growth medium was aspirated from the culture flasks. Cells were gently rinsed with 10 ml of PBS (Catalog number: 14190144, Gibco) to remove residual media. Next a total of 2 mL TrypLE (Gibco) solution was added, and the flasks containing cells were sat for 3 min at RT, after which, the cells became visibly rounded and were easily dislodged from the bottom of the flask with a few brief taps on a solid surface. A total of 8 mL of media was added to the flask to inactivate the TrypLE, and the mixture was centrifuged at 910 rpm for 4 min. The cell supernatant was decanted, and the cell pellets were resuspended in 5-6 mL of external solution followed by gentle triturations using a 10 ml pipette, and transferred to a 15 ml conical tube and immediately brought to the IW Barracuda instrument.
(§4) Peak membrane currents were analyzed with IW Barracuda software and exported to Excel for further analysis. Concentration response curve fitting was performed with BMS in-house software. IC50 values were obtained by fits of the Hill equation to the average percent inhibition data plotted versus compound concentration. […] Results are reported in Table 1 (NaV1.7 Barra IC50 in nM and NaV1.5 Barra IC50 in nM).

[2] = biological target: NaV1.5 (Homo sapiens (Human), UniProt Q14524); test: Automated electrophysiology, IonWorks Barracuda population patch clamp, NaV1.5 current (inactivated-state protocol); type: cell-based; details: HEK 293 cells expressing NaV1.5; read-out: NaV1.5 Barra IC50
NaV1.5, sequence (Q14524 whole entry): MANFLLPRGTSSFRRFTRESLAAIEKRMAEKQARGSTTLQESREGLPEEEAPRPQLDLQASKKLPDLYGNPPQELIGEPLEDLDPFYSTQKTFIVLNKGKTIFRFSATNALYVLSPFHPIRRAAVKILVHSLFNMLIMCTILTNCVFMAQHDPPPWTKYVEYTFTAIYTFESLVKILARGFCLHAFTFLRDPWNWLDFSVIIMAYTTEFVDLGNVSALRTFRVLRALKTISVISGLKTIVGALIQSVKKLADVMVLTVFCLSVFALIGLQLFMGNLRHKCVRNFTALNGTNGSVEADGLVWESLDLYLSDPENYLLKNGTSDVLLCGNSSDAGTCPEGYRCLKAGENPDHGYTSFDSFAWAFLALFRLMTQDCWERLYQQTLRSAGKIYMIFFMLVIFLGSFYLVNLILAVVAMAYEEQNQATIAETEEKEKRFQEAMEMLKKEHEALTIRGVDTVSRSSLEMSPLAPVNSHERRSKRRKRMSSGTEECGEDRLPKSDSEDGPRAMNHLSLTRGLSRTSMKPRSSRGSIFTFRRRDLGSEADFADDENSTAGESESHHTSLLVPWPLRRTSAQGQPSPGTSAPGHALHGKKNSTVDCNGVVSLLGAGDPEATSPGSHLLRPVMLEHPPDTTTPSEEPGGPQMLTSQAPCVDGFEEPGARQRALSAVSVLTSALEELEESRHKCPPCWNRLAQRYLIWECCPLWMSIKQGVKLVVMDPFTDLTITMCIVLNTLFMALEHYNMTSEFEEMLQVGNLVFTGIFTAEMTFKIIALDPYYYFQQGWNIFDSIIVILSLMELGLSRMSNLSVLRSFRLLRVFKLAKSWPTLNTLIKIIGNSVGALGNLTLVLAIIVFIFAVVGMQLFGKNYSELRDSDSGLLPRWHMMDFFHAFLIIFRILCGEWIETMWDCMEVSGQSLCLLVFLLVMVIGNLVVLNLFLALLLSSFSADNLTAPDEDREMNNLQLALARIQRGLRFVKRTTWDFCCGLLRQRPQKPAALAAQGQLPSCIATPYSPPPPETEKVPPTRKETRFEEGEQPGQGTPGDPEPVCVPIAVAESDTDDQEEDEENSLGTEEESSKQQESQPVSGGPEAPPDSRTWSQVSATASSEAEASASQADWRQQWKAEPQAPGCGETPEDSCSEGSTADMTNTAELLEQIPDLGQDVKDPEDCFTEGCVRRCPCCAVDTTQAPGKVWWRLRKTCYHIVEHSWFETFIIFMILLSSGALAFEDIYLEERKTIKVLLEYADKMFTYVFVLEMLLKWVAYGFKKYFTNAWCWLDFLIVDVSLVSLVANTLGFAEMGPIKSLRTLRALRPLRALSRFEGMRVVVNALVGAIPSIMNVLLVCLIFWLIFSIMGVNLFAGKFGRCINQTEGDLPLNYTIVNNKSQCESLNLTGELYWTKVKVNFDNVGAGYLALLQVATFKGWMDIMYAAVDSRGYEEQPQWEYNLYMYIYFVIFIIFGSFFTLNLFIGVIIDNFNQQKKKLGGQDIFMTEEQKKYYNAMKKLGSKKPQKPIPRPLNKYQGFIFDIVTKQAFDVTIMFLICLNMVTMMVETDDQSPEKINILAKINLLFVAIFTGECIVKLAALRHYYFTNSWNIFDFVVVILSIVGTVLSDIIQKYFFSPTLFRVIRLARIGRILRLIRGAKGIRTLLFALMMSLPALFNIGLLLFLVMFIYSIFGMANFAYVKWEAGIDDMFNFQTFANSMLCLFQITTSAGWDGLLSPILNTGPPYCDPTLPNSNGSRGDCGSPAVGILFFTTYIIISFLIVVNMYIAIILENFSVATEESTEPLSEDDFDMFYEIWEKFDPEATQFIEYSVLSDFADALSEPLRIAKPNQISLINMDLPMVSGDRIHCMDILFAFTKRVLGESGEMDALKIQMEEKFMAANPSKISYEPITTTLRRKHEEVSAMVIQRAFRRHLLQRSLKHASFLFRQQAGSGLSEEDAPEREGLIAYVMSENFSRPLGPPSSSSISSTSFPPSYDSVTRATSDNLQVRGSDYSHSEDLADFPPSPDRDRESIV
Method: as §1, §2, §3, §4

[3] = biological target: hNaV1.7 (Homo sapiens (Human), UniProt Q15858); test: Ligand Binding Assay (LBA), radioligand displacement on hNaV1.7 HEK293 cell membranes; details: 0.5 nM [3H] radioligand, 24 hours at room temperature; read-out: NaV1.7 LBA IC50
hNaV1.7, sequence (Q15858 whole entry): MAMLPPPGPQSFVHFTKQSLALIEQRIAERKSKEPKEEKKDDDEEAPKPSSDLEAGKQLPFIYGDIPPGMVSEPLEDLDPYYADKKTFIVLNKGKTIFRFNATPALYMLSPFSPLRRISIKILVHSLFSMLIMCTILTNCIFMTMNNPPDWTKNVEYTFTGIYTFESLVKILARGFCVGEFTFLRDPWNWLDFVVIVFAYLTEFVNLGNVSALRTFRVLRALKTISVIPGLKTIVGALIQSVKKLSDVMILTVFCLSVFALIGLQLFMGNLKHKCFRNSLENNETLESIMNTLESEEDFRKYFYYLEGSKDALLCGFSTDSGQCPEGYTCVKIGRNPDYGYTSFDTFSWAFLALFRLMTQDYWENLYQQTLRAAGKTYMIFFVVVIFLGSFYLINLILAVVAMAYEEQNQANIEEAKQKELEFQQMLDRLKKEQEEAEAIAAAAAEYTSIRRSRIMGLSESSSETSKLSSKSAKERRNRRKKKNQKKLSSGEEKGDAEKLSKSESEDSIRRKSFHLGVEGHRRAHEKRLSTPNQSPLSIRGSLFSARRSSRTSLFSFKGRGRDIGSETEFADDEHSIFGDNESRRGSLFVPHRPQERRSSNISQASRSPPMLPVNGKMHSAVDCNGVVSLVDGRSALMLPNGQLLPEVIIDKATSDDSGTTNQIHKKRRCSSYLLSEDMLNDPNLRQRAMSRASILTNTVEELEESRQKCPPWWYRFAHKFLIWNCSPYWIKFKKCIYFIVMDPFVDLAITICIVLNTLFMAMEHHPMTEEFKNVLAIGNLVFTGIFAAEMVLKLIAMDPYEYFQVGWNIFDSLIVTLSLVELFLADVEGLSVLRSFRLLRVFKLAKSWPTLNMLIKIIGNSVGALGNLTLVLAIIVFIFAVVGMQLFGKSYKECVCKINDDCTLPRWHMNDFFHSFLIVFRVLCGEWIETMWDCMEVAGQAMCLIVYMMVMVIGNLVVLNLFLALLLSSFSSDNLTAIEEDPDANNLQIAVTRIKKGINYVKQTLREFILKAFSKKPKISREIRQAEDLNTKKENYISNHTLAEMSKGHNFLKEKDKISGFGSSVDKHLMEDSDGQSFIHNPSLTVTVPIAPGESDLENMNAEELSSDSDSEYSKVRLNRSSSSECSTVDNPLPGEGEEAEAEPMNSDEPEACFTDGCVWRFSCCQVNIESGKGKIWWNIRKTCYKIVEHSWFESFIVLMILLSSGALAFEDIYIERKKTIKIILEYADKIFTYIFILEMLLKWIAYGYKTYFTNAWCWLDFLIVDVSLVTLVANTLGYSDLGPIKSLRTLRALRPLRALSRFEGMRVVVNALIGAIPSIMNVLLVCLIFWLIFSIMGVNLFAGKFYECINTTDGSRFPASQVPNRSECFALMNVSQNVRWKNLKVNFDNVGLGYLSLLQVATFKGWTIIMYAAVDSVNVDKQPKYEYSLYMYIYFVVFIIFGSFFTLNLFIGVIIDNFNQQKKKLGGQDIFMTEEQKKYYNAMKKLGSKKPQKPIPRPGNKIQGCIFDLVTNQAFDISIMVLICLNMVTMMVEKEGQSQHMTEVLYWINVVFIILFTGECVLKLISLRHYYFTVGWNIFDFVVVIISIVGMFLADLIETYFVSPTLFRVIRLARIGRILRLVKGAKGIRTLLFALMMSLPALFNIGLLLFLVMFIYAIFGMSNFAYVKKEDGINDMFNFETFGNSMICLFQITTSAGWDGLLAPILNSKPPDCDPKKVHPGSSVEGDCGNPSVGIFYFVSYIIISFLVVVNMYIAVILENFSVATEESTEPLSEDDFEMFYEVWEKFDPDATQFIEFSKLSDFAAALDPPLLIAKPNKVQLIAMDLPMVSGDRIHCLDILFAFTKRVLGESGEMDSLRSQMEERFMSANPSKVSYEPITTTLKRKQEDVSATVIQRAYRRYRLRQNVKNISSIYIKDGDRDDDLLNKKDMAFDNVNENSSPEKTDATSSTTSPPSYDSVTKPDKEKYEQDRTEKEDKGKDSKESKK
Method: Ligand Binding Assay (LBA): hNaV1.7 binding affinities were determined with a filtration binding assay using purified membranes from HEK293 cells stably expressing hNaV1.7. HEK293 cells from a 10-stack cell culture flask (approximately 10^10 cells) were dissociated, frozen, and stored at −80° C. To prepare membranes, the frozen cell pellet was thawed and suspended in 6 ml hypotonic lysis buffer (50 mM HEPES, 0.1% mammalian protease inhibitor cocktail). 1 ml of resuspended cells was added to an additional 6 ml of lysis buffer and homogenized with 30 strokes of a tight pestle in a glass homogenizer. Homogenate was centrifuged at 1000×g for 10 minutes at 4° C. and the resulting supernatant was further centrifuged at 38,500×g for 60 minutes at 4° C. The resulting pellet was resuspended in binding buffer (50 mM HEPES, 130 mM NaCl, 5.4 mM KCl, 0.8 mM MgCl2, 5 mM glucose, pH 7.4) and needle homogenized with a 25 gauge needle. Protein concentration was determined with a BCA protein assay. Purified membranes were aliquoted, flash frozen in an ethyl alcohol dry ice bath, and stored at −80° C. To measure displacement of a radiolabeled ligand, 50 μg of purified hNaV1.7 HEK cell membranes were incubated with test compounds (eight concentrations, in duplicate) and 0.5 nM [3H] labeled radioligand in a 96 well plate for 24 hours at room temperature on a shaker. The total binding reaction volume was 250 μl, consisting of 200 μl purified hNaV1.7 HEK cell membranes, 25 μl test compound, and 25 μl radioligand. Non-specific binding was defined by 20 μM of a reference hNaV1.7 inhibitor. Binding reactions were terminated by filtration through GF/B filters presoaked in 0.5% polyethyleneamine. Filters were washed 5 times with 2 ml each of 4′C wash buffer (50 mM Tris-HCl, pH 7.4 at 4° C.). Bound radioactivity captured on the filters was counted on a liquid scintillation counter. Specific binding, expressed as % inhibition, was fit with Graphpad Prism software to determine binding IC50 values. Results are reported in Table 1 (NaV1.7 LBA IC50 in nM).

NaV1.7, sequence (Q15858 whole entry): as above

Compound: CC(C)c1cccc(-c2cn(C)c3cc(C(=O)NS(C)(=O)=O)ccc23)c1 [Example 16, 3-(3-Isopropylphenyl)-1-methyl-N-(methylsulfonyl)-1H-indole-6-carboxamide]
- IC50 [1]: 427 nM
- IC50 [2]: > 30000 nM
- IC50 [3]: 217 nM

Compound: CCc1cccc(-c2cn(C)c3cc(C(=O)NS(C)(=O)=O)ccc23)c1 [Example 17, 3-(3-Ethylphenyl)-1-methyl-N-(methylsulfonyl)-1H-indole-6-carboxamide]
- IC50 [1]: 220 nM
- IC50 [2]: > 30000 nM
- IC50 [3]: 440 nM

Compound: Cn1cc(-c2ccc(C(F)(F)F)cc2)c2ccc(C(=O)NS(=O)(=O)C3CC3)cc21 [Example 18, N-(cyclopropylsulfonyl)-1-methyl-3-(4-(trifluoromethyl)phenyl)-1H-indole-6-carboxamide]
- IC50 [1]: 109 nM
- IC50 [2]: 8720 nM
- IC50 [3]: 77 nM

Compound: Cn1cc(-c2ccc(C(F)(F)F)cc2)c2ccc(C(=O)NS(=O)(=O)C(F)(F)F)cc21 [Example 19, 1-Methyl-3-(4-(trifluoromethyl)phenyl)-N-((trifluoromethyl)sulfonyl)-1H-indole-6-carboxamide]
- IC50 [1]: 812 nM
- IC50 [2]: 7480 nM
- IC50 [3]: 1080 nM

Compound: Cn1cc(-c2ccc(C(F)(F)F)cc2)c2ccc(C(=O)NS(=O)(=O)c3cccs3)cc21 [Example 20, 1-Methyl-N-(thiophen-2-ylsulfonyl)-3-(4-(trifluoromethyl)phenyl)-1H-indole-6-carboxamide]
- IC50 [1]: 419 nM
- IC50 [2]: 3860 nM
- IC50 [3]: 361 nM

Compound: Cn1cc(-c2ccc(C(F)(F)F)cc2)c2ccc(C(=O)NS(=O)(=O)c3ccc(F)c(F)c3)cc21 [Example 21, N-((3,4-difluorophenyl)sulfonyl)-1-methyl-3-(4-(trifluoromethyl)phenyl)-1H-indole-6-carboxamide]
- IC50 [1]: > 30000 nM
- IC50 [2]: 18100 nM
- IC50 [3]: > 30000 nM

Compound: CC(C)COc1ccc(-c2cn(C)c3cc(C(=O)NS(C)(=O)=O)ccc23)cn1 [Example 23, 3-(6-Isobutoxypyridin-3-yl)-1-methyl-N-(methylsulfonyl)-1H-indole-6-carboxamide]
- IC50 [1]: 183 nM
- IC50 [2]: > 30000 nM
- IC50 [3]: 468 nM

Compound: CC(C)COc1ncc(-c2cn(C)c3cc(C(=O)NS(=O)(=O)C4CC4)ccc23)cc1Cl [Example 24, 3-(5-Chloro-6-isobutoxypyridin-3-yl)-N-(cyclopropylsulfonyl)-1-methyl-1H-indole-6-carboxamide]
- IC50 [1]: 294 nM
- IC50 [2]: 12000 nM
- IC50 [3]: 22 nM

Compound: CC(C)COc1ncc(-c2cn(C(C)C)c3cc(C(=O)NS(C)(=O)=O)ccc23)cc1Cl [Example 29, 3-(5-Chloro-6-isobutoxypyridin-3-yl)-1-isopropyl-N-(methylsulfonyl)-1H-indole-6-carboxamide]
- IC50 [1]: 703 nM
- IC50 [2]: 1490 nM
- IC50 [3]: 89 nM

Compound: Cn1cc(-c2ccc(C(F)F)cc2)c2ccc(C(=O)NS(C)(=O)=O)cc21 [Example 30, 3-(4-(Difluoromethyl)phenyl)-1-methyl-N-(methylsulfonyl)-1H-indole-6-carboxamide]
- IC50 [1]: 262 nM
- IC50 [2]: > 30000 nM
- IC50 [3]: 1010 nM

Compound: Cn1cc(-c2ccc(C(F)F)cc2)c2ccc(C(=O)NS(=O)(=O)C3CC3)cc21 [Example 31, N-(cyclopropylsulfonyl)-3-(4-(difluoromethyl)phenyl)-1-methyl-1H-indole-6-carboxamide]
- IC50 [1]: 69 nM
- IC50 [2]: > 30000 nM
- IC50 [3]: 321 nM

Compound: Cn1cc(-c2cnc(OCC3CC3)c(Cl)c2)c2ccc(C(=O)NS(C)(=O)=O)cc21 [Example 34, 3-(5-Chloro-6-(cyclopropylmethoxy)pyridin-3-yl)-1-methyl-N-(methylsulfonyl)-1H-indole-6-carboxamide]
- IC50 [1]: 189 nM
- IC50 [2]: 8370 nM
- IC50 [3]: 270 nM

Compound: Cn1cc(-c2cnc(OCC3CC3)c(Cl)c2)c2ccc(C(=O)NS(=O)(=O)C3CC3)cc21 [Example 35, 3-(5-Chloro-6-(cyclopropylmethoxy)pyridin-3-yl)-N-(cyclopropylsulfonyl)-1-methyl-1H-indole-6-carboxamide]
- IC50 [1]: 86 nM
- IC50 [2]: 15100 nM
- IC50 [3]: 52 nM

Compound: CCS(=O)(=O)NC(=O)c1ccc2c(-c3cnc(OCC(C)C)c(Cl)c3)cn(C)c2c1 [Example 36, 3-(5-Chloro-6-isobutoxypyridin-3-yl)-N-(ethylsulfonyl)-1-methyl-1H-indole-6-carboxamide]
- IC50 [1]: 154 nM
- IC50 [2]: 5670 nM
- IC50 [3]: 38 nM

Compound: CC(C)COc1ncc(-c2cn(C)c3cc(C(=O)NS(=O)(=O)C(C)C)ccc23)cc1Cl [Example 37, 3-(5-Chloro-6-isobutoxypyridin-3-yl)-N-(isopropylsulfonyl)-1-methyl-1H-indole-6-carboxamide]
- IC50 [1]: 458 nM
- IC50 [2]: 14000 nM
- IC50 [3]: 207 nM

Compound: CC(C)COc1ncc(-c2cn(C)c3cc(C(=O)NS(=O)(=O)C(C)(C)C)ccc23)cc1Cl [Example 38, N-(tert-butylsulfonyl)-3-(5-chloro-6-isobutoxypyridin-3-yl)-1-methyl-1H-indole-6-carboxamide]
- IC50 [1]: 1300 nM
- IC50 [2]: 21900 nM
- IC50 [3]: 156 nM

Compound: CC(C)COc1ncc(-c2nn(C)c3cc(C(=O)NS(C)(=O)=O)ccc23)cc1Cl [Example 39, 3-(5-Chloro-6-isobutoxypyridin-3-yl)-1-methyl-N-(methylsulfonyl)-1H-indazole-6-carboxamide]
- IC50 [1]: 66 nM
- IC50 [2]: 6510 nM
- IC50 [3]: 67 nM

Compound: CC(C)COc1ncc(-c2c3ccc(C(=O)NS(C)(=O)=O)cc3nn2C)cc1Cl [Example 40, 3-(5-Chloro-6-isobutoxypyridin-3-yl)-2-methyl-N-(methylsulfonyl)-2H-indazole-6-carboxamide]
- IC50 [1]: 787 nM
- IC50 [2]: 16700 nM
- IC50 [3]: 1990 nM

Compound: CC(C)COc1ncc(-c2c3ccc(C(=O)NS(=O)(=O)C4CC4)cc3nn2C)cc1Cl [Example 41, 3-(5-Chloro-6-isobutoxypyridin-3-yl)-N-(cyclopropylsulfonyl)-2-methyl-2H-indazole-6-carboxamide]
- IC50 [1]: 195 nM
- IC50 [2]: 11300 nM
- IC50 [3]: 673 nM

From US10550080B2 (BRISTOL-MYERS SQUIBB COMPANY, priority 2016, dated 2020)
